Data as given in patent EP4728880A1, “CORDYCEPS SINENSIS FERMENTATION COMPOSITION” (Hangzhou Zhongmeihuadong Pharmaceutical Jiangdong Co., Ltd, priority 2023, dated 2024).
Like-named read-outs stand apart in the source and are kept apart here.

How the values were obtained:
[1] = Hydroxyl radical scavenging rate (Fenton colorimetric method); type: biochemical
Description: IV. Detection of hydroxyl radical scavenging rate (Fenton colorimetric method)
H2O2/Fe^2+ produces a hydroxyl radical through a Fenton reaction, Fe^2+ is oxidized into Fe^3+, and red phenanthroline-Fe^2+ is oxidized into colorless phenanthroline-Fe^3+, so that the maximum absorption peak of the phenanthroline-Fe^2+ disappears at 536 nm. The absorbance change at 530-540 nm may be determined by a spectrophotometer. Thus, content change of the hydroxyl radical can be calculated, that is, the hydroxyl radical scavenging rate or scavenging capacity of the sample can be calculated.
• 1. 0.2 g of mycelia powder was weighed; 2 mL of purified water was added; the mycelia powder and the water were uniformly mixed; the mixture was placed at a room temperature for standing for 4 h; the solution was centrifuged at 10000 rpm for 10 min; and the supernatant was taken for later use. • 2. Other samples served as reference solutions.
The spectrophotometer was started for preheating for 30 min; the wavelength was adjusted to 536 nm; and the purified water was subjected to zero setting.
A blank tube, an undamaged tube, a damaged tube, a control tube and a determination tube were set according to the following table; the solutions were added in sequence; and the solutions were uniformly mixed and placed in a water bath at 37°C for 1 h.
(§1) Calculation: To-be-tested sample•OH scavenging rate (%)=[(A3-A3')-(A2-A0)]/(A1-A2)×100% • V. Detection methods of adenosine, mannitol, total amino acid content and water were conducted according to the detection method under the fermented Cordyceps sinensis. mycelia powder item in accordance with National Drug Standards. • VI. Detection method of tyrosinase inhibition rate • 1. Preparation of a solution: • (1) Preparation of a PBS: 3.4022 g of potassium dihydrogen phosphate and 5.7055 g of potassium phosphate dibasic trihydrate were respectively weighed and then dissolved with an appropriate amount of distilled water; the volume was fixed in a 1000 mL volumetric flask; the solution was shaken up to obtain the PBS having a pH value of 6.81 and a concentration of 0.05 mol·L-1, and the PBS was kept in a dark place at 4°C in a refrigerator. • (2) Preparation of an L-Dopa solution: 0.0395 g of L-Dopa was precisely weighed and dissolved with the prepared PBS; the solution was transferred into a 100 mL volumetric flask; the volume was fixed; the solution was shaken up and subjected to ultrasonic treatment to obtain the L-Dopa solution of 2 mmol·L-1. The solution was used when prepared. • (3) Preparation of a TYR ([…]) solution: 25 KU of the TYR was totally dissolved with a small amount of PBS; the solution was repeatedly washed for several times; the washing liquid was transferred into the […] volumetric flask; the volume was fixed with the PBS; the liquid was shaken up to obtain a TYR solution of 250 U·mL-1; then the mother solution was diluted to 125 U·mL-1; and the solution was preserved at -20°C in the refrigerator for later use. • 2. Preparation of samples: 250 mg/ml of an erythritol mother solution: 2.5 g of erythritol was weighed, and 10 ml of purified water was added; 250 mg/ml of a mannitol mother solution: 7.5 g of mannitol was weighed, 30 ml of purified water was added, the mixture was heated and dissolved; and the solution was diluted into the needed concentration according to each reaction system and then added into the detection system. • 3. Determination of the sample on TYR inhibitory activity

[2] = cited from earlier work
[3] = cited from earlier work; remark: listed apart in the source
[4] = tested on: tyrosinase; assay: Tyrosinase inhibition rate (L-Dopa substrate, absorbance at 475 nm); type: biochemical; settings: combination of both amounts, negative = activation rate
Procedure: as §1
The reaction system was shown as Table 4.2. […] A calculation formula of the inhibition rate was as follows: when the calculated result was negative, the absolute value of the negative was an activation rate.
Inhibition rate = ((A1−A2)−(A3−A4))/(A1 −A2) × 100% [formula] • A1: absorbance of a reaction solution with TYR instead of the sample determined at 475 nm; • A2: absorbance of a reaction solution without the sample nor the TYR determined at 475 nm; • A3: absorbance of a reaction solution with both the sample and the TYR determined at 475 nm; • A4: absorbance of a reaction solution with the sample instead of the TYR determined at 475 nm.

[5] = in water, at 25°C; cited from earlier work
[6] = EGT 0.4 ml (0.02 mg/ml), Adenosine 0.4 ml (0.02 mg/ml), combination 0.2 ml (0.02 mg/ml) + 0.2 ml (0.02 mg/ml)
[7] = Erythritol 12.5 mg (6.25 mg/ml), Adenosine 0.15 ml (0.75 mg/ml), combination of both amounts
[8] = Erythritol 12.5 mg (6.25 mg/ml), Adenosine 0.15 ml (2.5 mg/ml), combination of both amounts
[9] = Erythritol 0.75 mg (3.75 mg/ml), Mannitol 2.5 mg (12.5 mg/ml), combination of both amounts
[10] = Erythritol 1.5 mg (7.5 mg/ml), Mannitol 2.5 mg (12.5 mg/ml), combination of both amounts
[11] = Erythritol 1.75 mg (8.75 mg/ml), Mannitol 2.5 mg (12.5 mg/ml), combination of both amounts
[12] = Erythritol 2 mg (10 mg/ml), Mannitol 2.5 mg (12.5 mg/ml), combination of both amounts
[13] = Erythritol 2.5 mg (12.5 mg/ml), Mannitol 2.5 mg (12.5 mg/ml), combination of both amounts
[14] = Erythritol 0.75 mg (3.75 mg/ml), Mannitol 1.25 mg (6.25 mg/ml)
[15] = Erythritol 1.25 mg (6.25 mg/ml), Mannitol 1.25 mg (6.25 mg/ml)
[16] = Erythritol 1.75 mg (8.75 mg/ml), Mannitol 2.5 mg (12.5 mg/ml)

Tyrosinase inhibition rate (%) [4, 14] [%] | Tyrosinase inhibition rate (%) [4, 15] [%] | Tyrosinase inhibition rate (%) [4, 16] [%] | Structure (SMILES) | OH clearance rate (%) [1, 6] [%] | OH clearance rate (%) [1, 7] [%] | OH clearance rate (%) [1, 8] [%] | OH clearance rate (%) ([1]; EGT 0.4 ml (0.05 mg/ml), Erythritol 0.4 ml (0.05 mg/ml), combination 0.2 ml (0.05 mg/ml) + 0.2 ml (0.05 mg/ml)) | intestinal tolerance ([2]; children aged 4-6 years, beverages containing 15 g) | intestinal tolerance ([2]; healthy volunteers aged 18-24 years, 20-35 g in a liquid form) | intestinal tolerance ([2]; healthy volunteers aged 18-24 years, intake of 50 g) | OH clearance rate (%) [1, 9] [%] | OH clearance rate (%) [1, 10] [%] | OH clearance rate (%) [1, 11] [%] | OH clearance rate (%) [1, 12] [%] | OH clearance rate (%) [1, 13] [%] | absorbed in small intestine via passive diffusion ([3]; after ingestion by a human body) | absorbed erythritol oxidized into erythrose in blood ([3]; human body, share of the absorbed amount) | solubility [5] [%]
 |  |  | Nc1ncnc2c1ncn2[C@@H]1O[C@H](CO)[C@@H](O)[C@H]1O [Adenosine, adenosine] | 0.00 | 10.57 | 7.17 |  |  |  |  |  |  |  |  |  |  |  | 
 |  |  | C[N+](C)(C)[C@@H](Cc1c[nH]c(=S)[nH]1)C(=O)[O-] [EGT, Ergothioneine] | -5.70 |  |  | 2.08 |  |  |  |  |  |  |  |  |  |  | 
-1.06 | 1.71 | 6.39 | OCC(O)C(O)CO (centres unmarked) [Erythritol, 1,2,3,4-butanetetraol] |  | -8.17 | -5.8 |  | the diarrhea and/or a severe intestinal symptom is not observed | good intestinal tolerance without any adverse symptom | symptoms such as diarrhea and nausea were observed | 5.14 | 2.44 | 11.76 | 20.15 | 11.45 | 80-90% | 5-10% | 37
3.62 | 2.51 | 2.51 | OC[C@@H](O)[C@@H](O)[C@H](O)[C@H](O)CO [Mannitol, D-mannitol] |  |  |  |  |  |  |  | 17.91 | 7.48 | 7.48 | 7.48 | 7.48 |  |  | 
